Substitutions are numbered along the chain they refer to. “Also recorded” adds a separate entry of the source. Values belong to the molecule of their own block, whether it stands above or below them.
Experiments:
[1] = test system: human iPSC-derived microglia (WT and TREM2 KO); assay: In vitro lipid storage assay, lipidomics by LC/MS, iPSC microglia treated with myelin; assay type: cell-based; conditions: myelin 25 ug/mL 48 h, LXR agonist 10 uM; for cholesteryl ester (CE) accumulation: WT and TREM2 KO iPSC microglia
Experimental: Lipid analyses were performed by liquid chromatography (Shimadzu Nexera X2 system, Shimadzu Scientific Instrument, Columbia, Md., USA) coupled to electrospray mass spectrometry (QTRAP 6500+, Sciex, Framingham, Mass., USA). For each analysis, 5 μL of sample was injected on a BEH C18 1.7 μm, 2.1×100 mm column (Waters Corporation, Milford, Mass., USA) using a flow rate of 0.25 mL/min at 55° C. For positive ionization mode, mobile phase A consisted of 60:40 acetonitrile/water (v/v) with 10 mM ammonium formate+0.1% formic acid; mobile phase B consisted of 90:10 isopropyl alcohol/acetonitrile (v/v) with 10 mM ammonium formate+0.1% formic acid. For negative ionization mode, mobile phase A consisted of 60:40 acetonitrile/water (v/v) with 10 mM ammonium acetate; mobile phase B consisted of 90:10 isopropyl alcohol/acetonitrile (v/v) with 10 mM ammonium acetate. The gradient was programmed as follows: 0.0-8.0 min from 45% B to 99% B, 8.0-9.0 min at 99% B, 9.0-9.1 min to 45% B, and 9.1-10.0 min at 45% B. Electrospray ionization was performed in either positive or negative ion mode applying the following settings: curtain gas at 30; collision gas was set at medium; ion spray voltage at 5500 (positive mode) or 4500 (negative mode); temperature at 250° C. (positive mode) or 600° C. (negative mode); ion source Gas 1 at 50; ion source Gas 2 at 60. Data acquisition was performed using Analyst 1.6.3 (Sciex) in multiple reaction monitoring mode (MRM), with the following parameters: dwell time (msec) and collision energy (CE) for each species reported in Table 2 (positive mode) or Table 3 (negative mode); declustering potential (DP) at 80; entrance potential (EP) at 10 (positive mode) or −10 (negative mode); and collision cell exit potential (CXP) at 12.5 (positive mode) or −12.5 (negative mode). Lipids were identified based on their retention times and MRM properties of commercially available reference standards (Avanti Polar Lipids, Birmingham, Ala., USA). Quantification was performed using MultiQuant 3.02 (Sciex). Metabolites were normalized to either total protein amount or cell number. […]

TREM2 [2] = molecular target: T1, TREM2 (Homo sapiens, UniProt Q9NZC2); assay: pSYK AlphaLISA in TREM2/DAP12-expressing stable HEK293 cells; assay type: cell-based; design: expressed in transfected cells; conditions: for binding to and signaling via TREM2 (overall conclusion): conclusion from pSYK and SPR studies; for pSYK levels: liposomes 30% test lipid/70% PC, or oxLDL, vs DAP12-only cells and buffer control
T1 sequence (Q9NZC2 19-230): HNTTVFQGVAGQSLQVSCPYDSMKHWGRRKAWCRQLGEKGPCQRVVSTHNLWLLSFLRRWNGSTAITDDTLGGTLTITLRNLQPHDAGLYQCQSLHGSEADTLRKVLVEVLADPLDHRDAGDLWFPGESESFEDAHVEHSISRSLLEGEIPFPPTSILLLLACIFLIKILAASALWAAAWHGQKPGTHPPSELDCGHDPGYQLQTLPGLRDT
T1 sequence (O43914 22-113 partner): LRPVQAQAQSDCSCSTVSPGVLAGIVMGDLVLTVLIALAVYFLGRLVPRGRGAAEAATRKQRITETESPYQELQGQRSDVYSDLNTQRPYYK
Experimental: (§1) 70 molar percent DOPC (1,2-dioleoyl-sn-glycero-3-phosphocholine, Avanti Polar Lipids) and 30 molar percent of one test lipid were combined in chloroform in a glass vial and dried under a stream of N2 gas for 1-2h, or until completely dry. Test lipids included sulfatide (Avanti), POPS (Avanti), SM (Avanti), PI (Avanti), GalCer (Avanti), PE (Echelon Biosciences), and free cholesterol (Echelon Biosciences). The lipid mixture was re-suspended in HBSS (1-2 mg/mL final lipid concentration) and vortexed for 2-3 min. Subsequently, the lipid suspension was bath sonicated for 10 minutes. For surface plasmon resonance experiments, liposomes were extruded 10 times using an Avanti mini-extruder constructed with one 100 nm pore size membrane to form small unilamellar vesicles.
HEK293 cells were transfected with a pBudCE4.1 Mammalian Expression Vector (ThermoFisher) expressing wildtype human TREM2 and DAP12, and DAP12 alone. Stable expressing clones were selected and the cell surface TREM2 expression was evaluated by flow cytometry with APC-conjugated rat-anti-human/mouse-TREM2 monoclonal (R&D MAB17291). The highest wild type TREM2 expressing clone was selected for expansion. The clones stably expressing DAP12 were analyzed by Western blot.
(§2) Activation of TREM2-dependent pSYK signaling was measured using a commercial AlphaLISA assay (PerkinElmer). HEK293 cells: Two days before the experiment, HEK293 cells stably overexpressing TREM2 and DAP12 were plated at 40,000 cells/well on 96 well poly-D-lysine-coated plate. Differentiated human macrophage and BMDM were plated at 100,000 cells/well on tissue-culture treated 96-well plates. Cells were washed once with HBSS, then 50 μL of liposome mixture was added per well. For competition experiments, hTREM2-ECD or TREM1-his (Novoprotein Scientific) was incubated with liposomes for 1 hour at room temperature before adding to cells. 5 μg/mL human-specific mouse anti-TREM2 (Abnova) or 15 μg/mL mouse-specific sheep anti-TREM2 (R&D Systems) was added to each experiment as a positive control with side-by-side isotype controls, 5 μg/mL mouse IgG3 (R&D Systems) and 15 μg/mL polyclonal sheep IgG (R&D Systems), respectively. The cell plate was then transferred to a 37° C. incubator for 5 minutes. The liposome solution was discarded and 40 uL lysis buffer (Cell Signaling Technologies, CST). Lysate was incubated at 4 C for 30 min, then either frozen at −80 C or immediately carried forward to the alpha-LISA assay. Lysates were assayed using the standard protocol for the PerkinElmer pSYK AlphaLISA kit. 10 μL of lysate/well was transferred to a white opaque 384 well Optiplate (PerkinElmer). 5 μL of Acceptor Mix (containing the working solution of acceptor beads) was added per well followed by sealing of plates with foil seals and incubation 1 hour at room temperature. 5 μL of Donor Mix (containing the working solution of donor beads) was added to each well under reduced light conditions. Plates were again sealed and incubated 1 hour at room temperature. Plates were read using AlphaLISA settings on a PerkinElmer EnVision plate reader.

hTREM2 = molecular target: T2, hTREM2 (Homo sapiens, UniProt Q9NZC2); assay: Lipid binding analysis using surface plasmon resonance, hTREM2 ECD; conditions: for Response Units at the highest analyte concentration: 30% test lipid/70% PC liposomes
T2 construct: The ecto domain (residues 19-172) of TREM2 was sub cloned in the pRK vector; secretion signal from mouse Ig kappa chain V-III (amino acids 1-20) (N); made in house; host or cells: Expi293F cells (secreted, purified from the media by Ni-NTA and SEC)
T2 sequence (Q9NZC2 19-172): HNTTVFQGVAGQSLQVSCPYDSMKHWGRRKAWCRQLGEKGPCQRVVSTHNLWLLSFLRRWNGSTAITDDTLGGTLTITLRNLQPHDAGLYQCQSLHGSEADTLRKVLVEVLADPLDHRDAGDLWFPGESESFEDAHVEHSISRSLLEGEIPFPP
Experimental: as §1
The ecto domain (residues 19-172) of TREM2 was sub cloned in the pRK vector with the secretion signal from mouse Ig kappa chain V-III, amino acids 1-20 at the N-terminal region and a 6×-His tag at the C-terminal region. Expi293F™ cells were transfected using the Expi293™ M Expression System Kit according to the manufacturer's instructions and the media supernatant was harvested 96 hr post transfection. Harvested media was supplemented with 1M imidazole pH 8.0 to a final concentration 10 mM, filtered, and loaded on to HisPur™ Ni-NTA Resin equilibrated with load buffer (20 mM Tris pH 8.0, 150 mM NaCl and 10 mM Imidazole). Nonspecifically bound proteins were washed with load buffer supplemented with 50 and 100 mM imidazole and TREM2 ecto domain was eluted with 20 mM Tris pH 8.0, 150 mM NaCl and 200 mM Imidazole. […] Elute fractions were analyzed by SDS PAGE and further characterized by analytical size exclusion chromatography and the intact protein mass determination.
The binding analysis was performed using Series S Sensor chip L1 and Biacore T200 instrument (GE Healthcare) at 25° C. […] Recombinant hTREM2-ECD or hTREM2-R74H-ECD proteins were diluted in PBS (0, 0.19, 0.56, 1.7, 5, and 15 μM) and injected over both flow cells for 60 seconds at 30 μl/min, and dissociation was monitored for additional 2 minutes. […]

hTREM2 R47H = molecular target: T3, hTREM2 R47H (Homo sapiens, UniProt Q9NZC2, R47H); assay: Lipid binding analysis using surface plasmon resonance, hTREM2 R47H ECD; conditions: for Response Units at the highest analyte concentration: 30% test lipid/70% PC liposomes; for Kd: 30% test lipid/70% PC liposomes on L1 chip, 25° C., steady-state; for faster off-rate of R47H variant vs hTREM2: SPR kinetic analysis
T3 construct: The ecto domain (residues 19-172) of TREM2 was sub cloned in the pRK vector; secretion signal from mouse Ig kappa chain V-III (amino acids 1-20) (N); made in house; host or cells: Expi293F cells (secreted, purified from the media by Ni-NTA and SEC)
T3 sequence (Q9NZC2 19-172 R47H): T2 sequence (Q9NZC2 19-172) with R29H
Experimental: as §1
The ecto domain (residues 19-172) of TREM2 was sub cloned in the pRK vector with the secretion signal from mouse Ig kappa chain V-III, amino acids 1-20 at the N-terminal region and a 6×-His tag at the C-terminal region. Expi293F™ cells were transfected using the Expi293™ M Expression System Kit according to the manufacturer's instructions and the media supernatant was harvested 96 hr post transfection. Harvested media was supplemented with 1M imidazole pH 8.0 to a final concentration 10 mM, filtered, and loaded on to HisPur™ Ni-NTA Resin equilibrated with load buffer (20 mM Tris pH 8.0, 150 mM NaCl and 10 mM Imidazole). Nonspecifically bound proteins were washed with load buffer supplemented with 50 and 100 mM imidazole and TREM2 ecto domain was eluted with 20 mM Tris pH 8.0, 150 mM NaCl and 200 mM Imidazole. Eluted protein was pooled and subjected to size exclusion chromatography onto a HiLoad Superdex 75 16/600 column using 1×PBS as the running buffer. Elute fractions were analyzed by SDS PAGE and further characterized by analytical size exclusion chromatography and the intact protein mass determination.
The binding analysis was performed using Series S Sensor chip L1 and Biacore T200 instrument (GE Healthcare) at 25° C. Before coating with lipids, the sensor surfaces were washed with 1 minute injection of 40 μM 3-[(3cholamidopropyl)dimethylammonio]-1-propanesulfonate (CHAPS) and 40 uM of 0-octylglucoside at a flow rate of 30 μl/min. Residual detergent on the sensor surfaces was washed away by 30 second injection of 30% ethanol. 1 mg/ml Sulfatide/DOPC or PS/DOPC small unilamellar vesicles were injected for 15 minutes at 5 μl/min over the second flow cell. First flow cell was coated with DOPC and served as a reference surface. Loosely bound vesicles were washed away with two short pulses (15 s) of 10 mM NaOH at 30 μl/min followed by injection of 0.1 mg/ml bovine serum albumin for 3 minutes to block poorly-coated surface. Recombinant hTREM2-ECD or hTREM2-R74H-ECD proteins were diluted in PBS (0, 0.19, 0.56, 1.7, 5, and 15 μM) and injected over both flow cells for 60 seconds at 30 μl/min, and dissociation was monitored for additional 2 minutes. Between each measurement the lipids surface was regenerated by injection of 10 mM NaOH. Steady-state affinities were obtained by fitting the response at equilibrium against the concentration using Biacore™ T200 Evaluation Software v3.1

TREM2 [3] = molecular target: T1, TREM2; assay: pSYK AlphaLISA in human macrophages; assay type: cell-based; design: a system with endogenous expression of TREM2/DAP12; endogenous in cells; host or cells: macrophages differentiated from human peripheral blood monocytes (2-5 donors); conditions: for pSYK levels, titration: liposome or oxLDL titration
Experimental: as §1
as §2, with “Lysates were assayed using the standard protocol for the PerkinElmer pSYK AlphaLISA kit. 10 μL of lysate/well was transferred to a white opaque 384 well Optiplate (PerkinElmer). 5 μL of Acceptor Mix (containing the working solution of acceptor beads) was added per well followed by sealing of plates with foil seals and incubation 1 hour at room temperature. 5 μL of Donor Mix (containing the working solution of donor beads) was added to each well under reduced light conditions. Plates were again sealed and incubated 1 hour at room temperature.” left out, “reader. […]” for “reader.”

Molecule: O=C(O)Cc1cccc(OCCCN(Cc2cccc(C(F)(F)F)c2Cl)CC(c2ccccc2)c2ccccc2)c1 [GW3965]
cholesterol levels ([1]; TREM2 KO iPSC microglia): not rescued
cholesteryl ester (CE) accumulation [1]: rescued; also recorded: reduced
cholesteryl ester (CE) accumulation ([1]; listed as GW3695): rescued the accumulation of all CE species measured

Molecule: galactosylceramide [GalCer]
binding to and signaling via TREM2 (overall conclusion) (TREM2 [2]): did not appear to bind and signal via TREM2

Molecule: phosphatidylethanolamine [PE]
binding to and signaling via TREM2 (overall conclusion) (TREM2 [2]): did not appear to bind and signal via TREM2

pSYK levels (TREM2 [2]): significantly increased pSYK levels
Molecule: phosphatidylinositol [PI]
binding to and signaling via TREM2 (overall conclusion) (TREM2 [2]): did not appear to bind and signal via TREM2

Response Units at the highest analyte concentration (hTREM2): 631 RU
Response Units at the highest analyte concentration (hTREM2 R47H): 267 RU
Kd (hTREM2 R47H): 14 µM
faster off-rate of R47H variant vs hTREM2 (hTREM2 R47H): 2.4 fold
pSYK levels, titration (TREM2 [3]): dose-dependent increases in pSYK levels
Molecule: phosphatidylserine [PS]

Molecule: sphingomyelin [SM]
binding to and signaling via TREM2 (overall conclusion) (TREM2 [2]): did not appear to bind and signal via TREM2

Response Units at the highest analyte concentration (hTREM2): 704 RU
Kd (hTREM2; 30% test lipid/70% PC liposomes on L1 chip, 25° C., steady-state): 6.8 µM
Response Units at the highest analyte concentration (hTREM2 R47H): 191 RU
Kd (hTREM2 R47H): 20 µM
faster off-rate of R47H variant vs hTREM2 (hTREM2 R47H): 5 fold
binding to and signaling via TREM2 (overall conclusion) (TREM2 [2]): binds and signals via TREM2
pSYK levels (TREM2 [2]): significantly increased pSYK levels
pSYK increase with recombinant TREM2 ECD competition (TREM2 [3]; 3 μM recombinant TREM2-ECD): reduced to baseline levels
pSYK levels, titration (TREM2 [3]): dose-dependent increases in pSYK levels
Molecule: sulfatide

Source: US20230132366A9, “METHODS FOR TREATING DYSREGULATED LIPID METABOLISM” (DENALI THERAPEUTICS INC., priority 2018, published 2023)
